Experimental data: ChEMBL document CHEMBL1201862, “PubChem BioAssay data set” (2004)
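Exposure lasted 48 hours, with cells grown in 96-well plates and compounds tested at five concentrations. Here, GI50 denotes the concentration required for 50% inhibition of growth.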 The source made the active and inactive calls. No stated cut-off is given here; in the data, active = GI50 up to about 1.1 µM and inactive = higher.

Experiments:
Test in all cases: DTP human tumour cell line panel, 48 h
MOLT-4 = tested on: MOLT-4
K562 = tested on: K562
NCI-H23 = tested on: NCI-H23
UO-31 = tested on: UO-31
HT-29 = tested on: HT-29
KM12 = tested on: KM12
HCT-15 = tested on: HCT-15
EKVX = tested on: EKVX
U-251 = tested on: U-251
OVCAR-8 = tested on: OVCAR-8
A498 = tested on: A498
SK-OV-3 = tested on: SK-OV-3
SNB-19 = tested on: SNB-19
NCI-H226 = tested on: NCI-H226
NCI-H522 = tested on: NCI-H522
786-0 = tested on: 786-0
HOP-92 = tested on: HOP-92

Structure (SMILES)	GI50 (MOLT-4)	GI50 (K562)	GI50 (NCI-H23)	GI50 (UO-31)	GI50 (HT-29)	GI50 (KM12)	GI50 (HCT-15) [µM]	GI50 (EKVX)	GI50 (U-251)	GI50 (OVCAR-8)	GI50 (A498)	GI50 (SK-OV-3)	GI50 (SNB-19)	GI50 (NCI-H226)	GI50 (NCI-H522)	GI50 (786-0)	GI50 (HOP-92)
N#CC(/C(=N/NC(=N)N)C(=O)Nc1ccccc1[N+](=O)[O-])c1nc(-c2ccc([N+](=O)[O-])cc2)cs1 (stereo unspecified)	> 100 µM (inactive)	> 100 µM (inactive)	> 100 µM (inactive)	> 100 µM (inactive)	> 100 µM (inactive)	> 100 µM (inactive)	> 100	> 100 µM (inactive)	> 100 µM (inactive)	> 100 µM (inactive)	> 100 µM (inactive)	> 100 µM (inactive)	> 100 µM (inactive)	> 100 µM (inactive)	> 100 µM (inactive)	> 100 µM (inactive)	–
CCOC(=O)C(C(=O)OCC)=C1C=C(c2ccccc2)c2ccccc21	30.5 µM (inactive)	36.6 µM (inactive)	54.5 µM (inactive)	> 100 µM (inactive)	42.8 µM (inactive)	37.4 µM (inactive)	25.8	> 100 µM (inactive)	86.7 µM (inactive)	> 100 µM (inactive)	13.4 µM (inactive)	> 100 µM (inactive)	> 100 µM (inactive)	78.9 µM (inactive)	–	28.5 µM (inactive)	8.09 µM (inactive)
c1ccc2c(c1)CCCc1cc3ccccc3nc1-2	57.5 µM (inactive)	> 100 µM (inactive)	> 100 µM (inactive)	> 100 µM (inactive)	46.3 µM (inactive)	> 100 µM (inactive)	> 100	> 100 µM (inactive)	> 100 µM (inactive)	> 100 µM (inactive)	79.4 µM (inactive)	38.7 µM (inactive)	> 100 µM (inactive)	–	82.4 µM (inactive)	> 100 µM (inactive)	–
CCN(CC)CCN1CCc2c([nH]c3ccccc23)C1c1cccnc1 (stereo unspecified)	> 100 µM (inactive)	88.9 µM (inactive)	> 100 µM (inactive)	37.2 µM (inactive)	> 100 µM (inactive)	> 100 µM (inactive)	> 100	> 100 µM (inactive)	> 100 µM (inactive)	> 100 µM (inactive)	> 100 µM (inactive)	> 100 µM (inactive)	> 100 µM (inactive)	–	> 100 µM (inactive)	> 100 µM (inactive)	65 µM (inactive)
C[C@]12CCC(=O)C(O)=C1CC[C@@H]1C2CC[C@]2(C)Nc3c(cnn3-c3ccccc3)CC12 (stereo partly specified)	32.6 µM (inactive)	40.6 µM (inactive)	54.5 µM (inactive)	26.3 µM (inactive)	39.4 µM (inactive)	31.7 µM (inactive)	49.9	> 100 µM (inactive)	> 100 µM (inactive)	64.4 µM (inactive)	> 100 µM (inactive)	> 100 µM (inactive)	–	64.3 µM (inactive)	–	> 100 µM (inactive)	–
Cc1ccc(-c2cc(=O)c3cc(C)c(C)c(C(=O)O)c3o2)cc1N	> 100 µM (inactive)	> 100 µM (inactive)	> 100 µM (inactive)	> 100 µM (inactive)	> 100 µM (inactive)	> 100 µM (inactive)	> 100	> 100 µM (inactive)	> 100 µM (inactive)	> 100 µM (inactive)	–	> 100 µM (inactive)	> 100 µM (inactive)	> 100 µM (inactive)	> 100 µM (inactive)	> 100 µM (inactive)	–
O=C(NCCO)c1ccc([N+](=O)[O-])cc1	> 100 µM (inactive)	> 100 µM (inactive)	> 100 µM (inactive)	> 100 µM (inactive)	> 100 µM (inactive)	> 100 µM (inactive)	> 100	> 100 µM (inactive)	> 100 µM (inactive)	> 100 µM (inactive)	> 100 µM (inactive)	> 100 µM (inactive)	> 100 µM (inactive)	> 100 µM (inactive)	> 100 µM (inactive)	> 100 µM (inactive)	–
Cc1cc(N(CCC#N)CCC#N)ccc1/C=C(\NC(=O)/C=C/c1ccccc1)NC(=O)Nc1ccccc1C	> 100 µM (inactive)	> 100 µM (inactive)	58.7 µM (inactive)	> 100 µM (inactive)	> 100 µM (inactive)	> 100 µM (inactive)	> 100	86.1 µM (inactive)	17.1 µM (inactive)	30.2 µM (inactive)	65.3 µM (inactive)	–	32.7 µM (inactive)	22.6 µM (inactive)	–	26.8 µM (inactive)	23.4 µM (inactive)
CC(C)=CC1C[C@H](C2CC=C3C2(C)CCC2[C@@]3(C)C(=O)CC3[C@]2(C)C=CC(=O)[C@]3(C)CO)CO1 (stereo partly specified)	2.7 µM (inactive)	4.34 µM (inactive)	5.42 µM (inactive)	18.6 µM (inactive)	4.15 µM (inactive)	5.92 µM (inactive)	14.4	26.2 µM (inactive)	8.83 µM (inactive)	4.55 µM (inactive)	8.81 µM (inactive)	16.6 µM (inactive)	19 µM (inactive)	–	2.73 µM (inactive)	5.96 µM (inactive)	16.6 µM (inactive)
CC(=O)C1C(c2ccccc2)C2(C)OC(=O)C(C#N)C12C (stereo unspecified)	> 100 µM (inactive)	> 100 µM (inactive)	> 100 µM (inactive)	> 100 µM (inactive)	–	> 100 µM (inactive)	> 100	> 100 µM (inactive)	> 100 µM (inactive)	> 100 µM (inactive)	–	> 100 µM (inactive)	> 100 µM (inactive)	> 100 µM (inactive)	–	> 100 µM (inactive)	–
C=CC(=O)Nc1ccccc1CC(c1c[nH]c2ccccc12)c1c[nH]c2ccccc12	19.5 µM (inactive)	20.7 µM (inactive)	20 µM (inactive)	15.9 µM (inactive)	18.3 µM (inactive)	19.7 µM (inactive)	18.7	17.5 µM (inactive)	–	16.4 µM (inactive)	–	19.8 µM (inactive)	17.9 µM (inactive)	21.3 µM (inactive)	22.8 µM (inactive)	18.8 µM (inactive)	–
O=C1NC2(CCCCCC2)C2CCCCCCC12O (stereo unspecified)	> 100 µM (inactive)	> 100 µM (inactive)	> 100 µM (inactive)	> 100 µM (inactive)	> 100 µM (inactive)	> 100 µM (inactive)	> 100	> 100 µM (inactive)	> 100 µM (inactive)	> 100 µM (inactive)	> 100 µM (inactive)	> 100 µM (inactive)	> 100 µM (inactive)	–	> 100 µM (inactive)	> 100 µM (inactive)	> 100 µM (inactive)
CCC(=C(c1ccc(OCc2ccccc2)cc1)c1ccc(OCc2ccccc2)cc1)c1ccc(OC)cc1	> 100 µM (inactive)	> 100 µM (inactive)	> 100 µM (inactive)	> 100 µM (inactive)	> 100 µM (inactive)	> 100 µM (inactive)	> 100	> 100 µM (inactive)	> 100 µM (inactive)	> 100 µM (inactive)	–	> 100 µM (inactive)	> 100 µM (inactive)	> 100 µM (inactive)	> 100 µM (inactive)	> 100 µM (inactive)	> 100 µM (inactive)
CC12OC3(O)C4C5CC(C6C5C3C61)C42 (stereo unspecified)	> 100 µM (inactive)	> 100 µM (inactive)	–	> 100 µM (inactive)	–	> 100 µM (inactive)	> 100	–	> 100 µM (inactive)	> 100 µM (inactive)	–	> 100 µM (inactive)	> 100 µM (inactive)	> 100 µM (inactive)	> 100 µM (inactive)	38.3 µM (inactive)	–
O=C(Cc1ccccc1)NN1C(=O)C(Cl)C1c1ccccc1 (stereo unspecified)	23 µM (inactive)	37.9 µM (inactive)	61.7 µM (inactive)	88.7 µM (inactive)	> 100 µM (inactive)	66.4 µM (inactive)	> 100	> 100 µM (inactive)	> 100 µM (inactive)	79.3 µM (inactive)	–	> 100 µM (inactive)	> 100 µM (inactive)	> 100 µM (inactive)	2.05 µM (inactive)	> 100 µM (inactive)	–
C=CCC1=C(C)C[C@@H]2CCC(=O)C=C12	> 100 µM (inactive)	> 100 µM (inactive)	> 100 µM (inactive)	> 100 µM (inactive)	> 100 µM (inactive)	> 100 µM (inactive)	> 100	> 100 µM (inactive)	> 100 µM (inactive)	> 100 µM (inactive)	> 100 µM (inactive)	> 100 µM (inactive)	> 100 µM (inactive)	–	> 100 µM (inactive)	> 100 µM (inactive)	> 100 µM (inactive)
CC(=O)SC(SC(C)=O)SC(C)=O	43.9 µM (inactive)	54.5 µM (inactive)	> 100 µM (inactive)	> 100 µM (inactive)	24.7 µM (inactive)	> 100 µM (inactive)	53.2	> 100 µM (inactive)	> 100 µM (inactive)	> 100 µM (inactive)	> 100 µM (inactive)	> 100 µM (inactive)	> 100 µM (inactive)	> 100 µM (inactive)	20.7 µM (inactive)	> 100 µM (inactive)	–
CCCCCCCCC(O)C#CC(N)=O (stereo unspecified)	16.9 µM (inactive)	13.3 µM (inactive)	17.6 µM (inactive)	10 µM (inactive)	12.1 µM (inactive)	–	13.2	11.4 µM (inactive)	8.34 µM (inactive)	9.42 µM (inactive)	16.4 µM (inactive)	–	11.8 µM (inactive)	10.8 µM (inactive)	–	12.7 µM (inactive)	10.5 µM (inactive)
O=CC1CCC=CC1NC(=O)OCc1ccccc1 (stereo unspecified)	44.5 µM (inactive)	4.68 µM (inactive)	> 100 µM (inactive)	> 100 µM (inactive)	51.4 µM (inactive)	47 µM (inactive)	54.8	> 100 µM (inactive)	57.5 µM (inactive)	22.7 µM (inactive)	–	> 100 µM (inactive)	–	> 100 µM (inactive)	> 100 µM (inactive)	33.8 µM (inactive)	99.5 µM (inactive)
